Assays:
Assay type in all cases: cell-based
monomac6 = test: In vitro ADC activity, AML cell lines, CellTiter-Glo (Example 20); details: monomac6, 5 days
sigm5 = test: as above; details: sigm5, 5 days
ociaml3 = test: as above; details: ociaml3, 5 days
5339hx = test: as above; details: 5 days
5979hx = test: as above; details: 5 days
ociaml5 = test: as above; details: ociaml5, 5 days
molm16 = test: as above; details: molm16, 5 days
various MM cell lines = test: In vitro ADC activity, MM cell lines, CellTiter-Glo (Example 20, Table 39); details: 5 days treatment; for Amax: in %
ko52 = test: In vitro ADC activity, AML cell lines, CellTiter-Glo (Example 20); details: ko52, 5 days
m07e = test: as above; details: 5 days
kasumi6 = test: as above; details: kasumi6, 5 days
eol1 = test: as above; details: eol1, 5 days
5340hx = test: as above; details: 5 days
aml193 = test: as above; details: aml193, 5 days
hl60 = test: as above; details: hl60, 5 days
tf1 = test: as above; details: tf1, 5 days
ociaml2 = test: as above; details: ociaml2, 5 days

Which results are given for `COc1ccccc1-c1nccc(COc2ccccc2C[C@@H](Oc2ncnc3sc(-c4ccc(F)cc4)c(-c4ccc(OCCN5CCN(C)CC5)c(Cl)c4C)c23)C(=O)O)n1` [P1, (2R)-2-[5-[3-chloro-2-methyl-4-[2-(4-methylpiperazin-1-yl)ethoxy]phenyl]-6-(4-fluorophenyl)thieno[2,3-d]pyrimidin-4-yl]oxy-3-[2-[[2-(2-methoxyphenyl)pyrimidin-4-yl]methoxy]phenyl]propanoic acid]?
GI50 (monomac6; Homo sapiens, MONO-MAC-6, 120 h): 1 nM; Amax (monomac6; in % (unit assumed)): −43; GI50 (sigm5; Homo sapiens, SIG-M5, 120 h): 118 nM; Amax (sigm5; in % (unit assumed)): −21; GI50 (ociaml3; Homo sapiens, OCI-AML-3, 120 h): 138 nM; Amax (ociaml3; unit assumed): 1%; GI50 (5339hx; 120 h): 5 nM; Amax (5339hx; in % (unit assumed)): −83; GI50 (5979hx; 120 h): 1 nM; Amax (5979hx): −83; GI50 (ociaml5; Homo sapiens, OCI-AML-5, 120 h): 265 nM; Amax (ociaml5; unit assumed): 4%; GI50 (molm16; 120 h): 45 nM; Amax (molm16; in % (unit assumed)): −76; GI50 (various MM cell lines; 120 h, Ip1 cell line): 7 nM; GI50 (various MM cell lines; 120 h, u266b1 cell line): 283 nM; GI50 (various MM cell lines; Homo sapiens, AMO1, 120 h, amo1 cell line): 5 nM; GI50 (various MM cell lines; Homo sapiens, EJM, 120 h, ejm cell line): 61 nM; GI50 (various MM cell lines; Homo sapiens, KMS-11, 120 h, kms11 cell line): 98 nM; GI50 (various MM cell lines; Homo sapiens, KMS-12-BM, 120 h, kms12bm cell line): 11 nM; GI50 (various MM cell lines; Homo sapiens, L-363, 120 h, L363 cell line): 3 nM; GI50 (various MM cell lines; Homo sapiens, MOLP-8, 120 h, molp8 cell line): 1 nM; GI50 (various MM cell lines; Homo sapiens, NCI-H929, 120 h, h929 cell line): 1 nM; GI50 (various MM cell lines; Homo sapiens, OPM-2, 120 h, opm2 cell line): 1 nM; GI50 (various MM cell lines; Homo sapiens, RPMI-8226, 120 h, rpmi8226 cell line): 2 nM; GI50 (various MM cell lines; Homo sapiens, SK-MM-2, 120 h, skmm2 cell line): > 10000 nM; Amax (various MM cell lines; Ip1 cell line): −58; GI50 (various MM cell lines; KE-97, 120 h, ke97 cell line): 7910 nM; GI50 (various MM cell lines; KHM-1B, 120 h, khm1b cell line): 2 nM; GI50 (various MM cell lines; KMM-1, 120 h, kmm1 cell line): 154 nM; GI50 (various MM cell lines; KMS-20, 120 h, kms20 cell line): 8 nM; GI50 (various MM cell lines; KMS-21BM, 120 h, kms21bm cell line): 1 nM; GI50 (various MM cell lines; KMS-26, 120 h, kms26 cell line): 60 nM; GI50 (various MM cell lines; KMS-27, 120 h, kms27 cell line): 1 nM; GI50 (various MM cell lines; KMS-28BM, 120 h, kms28bm cell line): 6 nM; GI50 (various MM cell lines; KMS-34, 120 h, kms34 cell line): 498 nM; GI50 (various MM cell lines; Karpas-620, 120 h, karpas620 cell line): 205 nM; Amax (various MM cell lines; L363 cell line): −47; Amax (various MM cell lines; amo1 cell line): −20; Amax (various MM cell lines; ejm cell line): −93; Amax (various MM cell lines; h929 cell line): −74; Amax (various MM cell lines; karpas620 cell line): −43; Amax (various MM cell lines; ke97 cell line): 21; Amax (various MM cell lines; khm1b cell line): −84; Amax (various MM cell lines; kmm1 cell line): −67; Amax (various MM cell lines; kms11 cell line): −62; Amax (various MM cell lines; kms12bm cell line): −79; Amax (various MM cell lines; kms20 cell line): −88; Amax (various MM cell lines; kms21bm cell line): −76; Amax (various MM cell lines; kms26 cell line): −49; Amax (various MM cell lines; kms27 cell line): −89; Amax (various MM cell lines; kms28bm cell line): −42; Amax (various MM cell lines; kms34 cell line): −64; Amax (various MM cell lines; molp8 cell line): −74; Amax (various MM cell lines; opm2 cell line): −77; Amax (various MM cell lines; rpmi8226 cell line): −91; Amax (various MM cell lines; skmm2 cell line): 112; Amax (various MM cell lines; u266b1 cell line): −24; GI50 (ko52; 120 h): 500 nM; Amax (ko52; in % (unit assumed)): −75; Amax (m07e; in % (unit assumed)): −74; GI50 (m07e; M-07e, 120 h): 94 nM; GI50 (kasumi6; 120 h): 4 nM; Amax (kasumi6; in % (unit assumed)): −96; GI50 (eol1; Homo sapiens, 120 h): 1 nM; Amax (eol1; in % (unit assumed)): −91; GI50 (5340hx; 120 h): 1 nM; Amax (5340hx; in % (unit assumed)): −92; GI50 (aml193; 120 h): 6 nM; Amax (aml193; in % (unit assumed)): −87; GI50 (hl60; Homo sapiens, HL-60, 120 h): 87 nM; Amax (hl60; in % (unit assumed)): −71; GI50 (tf1; Homo sapiens, TF-1, 120 h): 239 nM; Amax (tf1; unit assumed): 10%; GI50 (ociaml2; Homo sapiens, OCI-AML2, 120 h): 127 nM; Amax (ociaml2; in % (unit assumed)): −50

Reference: patent publication US20230092679A1, “MCL-1 INHIBITOR ANTIBODY-DRUG CONJUGATES AND METHODS OF USE” (NOVARTIS AG, priority 2019, published 2023)
